Here are results for four compounds from patent publication EP2128622A1, “Means and methods for diagnosing metastasising potentials of tumor cells” (DKFZ Deutsches Krebsforschungszentrum, priority 2008, dated 2009).

Data set [1] has as its system HaCaT cells. Briefly: Migration assay (scratch assay, model for wound healing). It counts as cell-based, human. The protocol: Using a human keratinocyte cell line (HaCaT) in a Scratch-Assay as a model for wound healing, different model-predicted points of interference were tested. First it was confirmed that HGF-induced migration predominantly depends on a transcriptional response.
Immortalized human keratinocytes (HaCaT cells) were cultured in monoculture with DMEM (10% FCS, 100 U/ml penicillin, 100 µg/ml streptomycin). Subsequently, the cell monolayer was damaged with a 'scratch' using a pipette tip and cells were treated with 5 µg/ml mitomycin c (Sigma-Aldrich) for three hours before stimulation. Cells were stimulated at indicated time points and periods with cytokines and/or inhibitors: 10 ng/ml HGF, (R&D Systems), 1 ng/ml EGF (R&D Systems), 150 nM Tyrphostin AG1473 (Biomol) (EGF-R inhibitor) or 1 µM GW 2974 (Sigma) (EGF-R inhibitor), […] Meloxicam (Biomol) (PTGS-2 inhibitor), 0.5 µM H-89 (Calbiochem) (PKA inhibitor) or 10 µM Myristoylated PKI (14-22) amide, cell-permeable PKA inhibitor (Biomol), 200 µM 8-(4-Chlorophenylthio)adenosine 3',5'-cyclic monophosphate sodium salt (Sigma) (PKA activator) and incubated for further 30 hours. Relative migratory activity was determined by measuring migration distance during culture using standard protocols.

Data set [2] relates to HaCaT cells. Briefly: MTT-viability assay. As to conditions: under Actinomycin D treatment; data not shown. It counts as cell-based, human.

Structures are written as SMILES. Numbered stars: 1 amine (or outer) side, 2 acyl side, 3 side chain; on linkers, the order of the positions; unused ones are H or OH. Bridge positions count the residues as written; N and C are the ends. Square brackets hold non-standard residues; d marks the D form. Peptide text beside a SMILES is read from it. I, II: the chains in the order shown. Actinocin(9to1) = Cc1c2oc3c(C)ccc(C(=O)[*:1])c3nc-2c(C(=O)[*:2])c(N)c1=O; NMeV = CN[C@H](C(=O)O)C(C)C; Sar = CNCC(=O)O

For `O=S(=O)(NCCNC/C=C/c1ccc(Br)cc1)c1cccc2cnccc12` [H-89], the HGF-induced migration entry in the data set with HaCaT cells [1] (Fig. 6C, 0.5 µM at the time of HGF stimulation) is given as “slightly increases migration”. In addition, in the data set with HaCaT cells [1] (Fig. 6C, 0.5 µM directly after HGF pulse stimulation (1.5 h)), the “development of a migratory response” value is listed as “does not alter development of a migratory response”. The further migration result in the data set on HaCaT cells [1] (Fig. 6C, PKA inhibition after 22 h, when cells already developed a full migratory response) is “delays further migration”.

As for `Nc1ncnc2c1nc(Sc1ccc(Cl)cc1)n2[C@@H]1O[C@@H]2COP(=O)([O-])O[C@H]2[C@H]1O.[Na+]` [8-(4-Chlorophenylthio)adenosine 3',5'-cyclic monophosphate sodium salt], the “HGF-induced HaCaT migration” value in the data set with HaCaT cells [1] (Fig. 6C, 200 µM added at different time points with respect to HGF pulse stimulation (10 ng/ml for 1.5h)) is given as “strongly decreases”. With `Cc1c2oc3c(C)ccc(C(=O)N[C@@H]4C(=O)N[C@H](C(C)C)C(=O)N5CCC[C@H]5C(=O)N(C)CC(=O)N(C)[C@@H](C(C)C)C(=O)O[C@@H]4C)c3nc-2c(C(=O)N[C@@H]2C(=O)N[C@H](C(C)C)C(=O)N3CCC[C@H]3C(=O)N(C)CC(=O)N(C)[C@@H](C(C)C)C(=O)O[C@@H]2C)c(N)c1=O` [Actimocyin D, Actinomycin D] (I: T[dV]P[Sar][NMeV] / II: T[dV]P[Sar][NMeV]; ester I:1-I:C, II:1-II:C; linker I:N-II:N via Actinocin(9to1)), in the data set on HaCaT cells [2], the cell viability result was “still viable”. Besides, the “migratory response to HGF” value in the data set on HaCaT cells [1] (Fig. 2B, prolonged incubation (30 h) with 10 ng/ml recombinant human HGF plus Actinomycin D 5 µg/ml) is recorded as “abolished any migratory response to HGF”. Turning to `CN(C)c1cc2c(Nc3ccc4c(cnn4Cc4ccccc4)c3)ncnc2cn1` [GW2974], the HGF-induced migration entry in the data set with HaCaT cells [1] (Fig. 3G, 1 µM GW 2974 simultaneous to 10 ng/ml HGF, 30 h) is listed as “abolish HGF-induced migration”.
